What was measured:
[1] = tested on: SW1573; details: cited from earlier work
[2] = tested on: SW1573 cells; details: cited from earlier work
[3] = tested on: SW1573; details: Canon et al. 2019; cited from earlier work
[4] = tested on: LN229 tumors (SHP2 A72S); experiment: LN229 CDX xenograft model (Example 5); format: in vivo, mouse; details: 100 mg/kg po qd
Description: (§1) Mice were implanted with (A) PAN02 tumor cells (1e6 cells/mouse) or (B) LN229 tumor cells in 50% matrigel (10e6 cells/mouse) subcutaneously in the flank. Once tumors reached an average size of ˜200 mm^3 mice were randomized to treatment groups and administration of test article or vehicle (2% HPMC E-50, 0.5% Tween-80 in 50 mM Sodium Citrate Buffer, pH 4.0). Body weight and tumor volume (using digital calipers) were measured twice a week until study endpoints. Compounds were administered by oral gavage daily.

[5] = tested on: PAN02 tumors (SHP2 G503V); experiment: PAN02 syngeneic tumor model (Example 2); format: in vivo, mouse
[6] = tested on: PAN02 tumors (SHP2 G503V); experiment: PAN02 syngeneic tumor model (Example 5); format: in vivo, mouse; details: 100 mg/kg po qd and 250 mg/kg po qd
Description: as §1

[7] = tested on: PAN02 cells (SHP2 G503V); experiment: pERK AlphaLISA in PAN02 cells; format: cell-based, mouse; details: PAN02, up to highest test concentration of 10 μM
Excerpt: (§2) In this example, two mouse tumor cell lines, KLN205 (lung squamous cell carcinoma) and PAN02 (pancreatic cancer), were characterized.
(§3) See FIGS. 5A through 5D, which are graphs depicting the pERK AlphaLISA® assay.

[8] = tested on: PAN02 cells (SHP2 G503V); experiment: CellTiter-Glo viability in PAN02 cells; format: cell-based, mouse; details: PAN02, up to highest test concentration of 10 μM
Excerpt: as §2, §3

[9] = tested on: LN229.E76K tumors (PTPN11 E76K); experiment: LN229.E76K glioblastoma xenograft (Example 8); format: in vivo, mouse; details: PO daily; Compound SOS1-(C) 50 mg/kg, RMC-4550 30 mg/kg, cobimetinib […]
Description: 6-7 week athymic nude mice were implanted with LN229.E76K in 50% matirgel (10×10^6 cells/mouse) subcutaneously in the flank. Once tumors reached an average size of 200 mm^3, mice were randomized into treatment groups to start the administration of test articles or control. All treatments were administered daily by oral gavage. Body weight and tumor volume (using calipers) was measured twice weekly until study endpoint.

[10] = tested on: Capan-2 tumors (KRAS G12V/wt); experiment: Capan-2 KRAS G12V/wt xenograft efficacy; format: in vivo, mouse; details: RMC-4550 20 mg/kg po every other day; Compound A 100 mg/kg po bid; Day 40
Description: Capan-2 cells were implanted in 50% Matrigel. Animals were randomized and treatment was initiated at average tumor volume of ˜180 mm3. […] Ns=no significance; *** p<0.001 by one-way ANOVA.
Once tumors reached an average size of ˜180 mm3, mice were randomized to treatment groups to start the administration of test articles or vehicle. […] Body weight and tumor volume (using calipers) was measured twice weekly until study endpoints.

[11] = tested on: KLN205 tumors (SHP2 G503V); experiment: KLN205 syngeneic tumor model (Example 2); format: in vivo, mouse; details: KLN205, DBA/2 mice; RMC-4550 30 mg/kg daily oral
[12] = tested on: SHP2 variants expressed in T-REx-293 (HEK-293) cells; experiment: pERK AlphaLISA in isogenic T-REx-293-SHP2 cells, EGF stimulated; format: cell-based; details: SHP2 G503V
Description: Assay data was plotted and EC50 values were determined using four-parameter concentration-response model in GraphPad Prism 7. Data provided are mean+/−standard deviation of duplicate values from representative experiments.

[13] = tested on: KLN205 cells (SHP2 G503V); experiment: CellTiter-Glo viability in KLN205 cells; format: cell-based, mouse; details: KLN205, up to highest test concentration of 10 μM
Excerpt: as §2, §3

[14] = tested on: KLN205 cells (SHP2 G503V); experiment: pERK AlphaLISA in KLN205 cells; format: cell-based, mouse; details: KLN205, up to highest test concentration of 10 μM
Excerpt: as §2, §3

[15] = tested on: PAN02 tumors (PTPN11 G503V); experiment: PAN02 PTPN11 G503V syngeneic model (Example 12); format: in vivo, mouse; details: PO daily; Compound SOS1-(C) 100 mg/kg for 7 days then 50 mg/kg, abemaciclib 30 mg/kg
Description: (§4) The combinatorial effects of Compound SOS1-(C) with Abemaciclib on tumor cell growth in vivo were evaluated in the murine pancreatic ductal adenocarcinoma PAN02 PTPN11G503V syngeneic model using female C57BL/6J mice (6-7 weeks old). Mice were implanted with PAN02 tumor cells in PBS (5 ×10^6cells/mouse) subcutaneously in the flank. Once tumors reached an average size of ˜130 mm3, mice were randomized to treatment groups to start the administration of test articles or control. All test articles were administered by oral gavage daily. Body weight and tumor volume (using calipers) was measured twice weekly until study endpoints.

[16] = tested on: PAN02 tumors (PTPN11 G503V); experiment: PAN02 PTPN11 G503V syngeneic model (Example 10); format: in vivo, mouse; details: PO daily
Description: as §4, with “cobimetinib” for “Abemaciclib”, “mm^3,” for “mm3,”

[17] = tested on: LN229.E76K tumors (PTPN11 E76K); experiment: LN229.E76K glioblastoma xenograft (Example 11); format: in vivo, mouse; details: PO daily; Compound SOS1-(B) 50 mg/kg, cobimetinib 2.5, and combination
Description: The combinatorial effects of Compound SOS1-(B) with cobimetinib on tumor cell growth in vivo were evaluated in a human engineered model of PTPN11-mutant glioblastoma, LN229.E76K xenograft model using female athymic nude mice (6-7 weeks old). Mice were implanted with LN229.E76K tumor cells in 50% Matrigel (10×10^6cells/mouse) subcutaneously in the flank. Once tumors reached an average size of ˜200 mm3, mice were randomized to treatment groups to start the administration of test articles or control. All test articles were administered by oral gavage daily. Body weight and tumor volume (using calipers) was measured twice weekly until study endpoints.

[18] = tested on: NCI-H358 KRASG12C xenograft; experiment: In vivo NSCLC K-Ras G12C xenograft model; set-up: species or system BALB/c nude mice; details: single agent
Description: (§5) Mice were implanted with NCI-H358 tumor cells in 50% Matrigel (5×10^6 cells/mouse) subcutaneously in the flank. At the indicated tumor volume (dotted line, FIG. 2A), mice were randomized to treatment groups to start the administration of test articles or vehicle. […] Body weight and tumor volume (using calipers) was measured twice weekly until study endpoints.
Mice were implanted with NCI-H358 tumor cells in 50% Matrigel (5×10^6 cells/mouse) subcutaneously in the flank. At indicated tumor volume (dotted line, FIG. 3A), mice were randomized to treatment groups to start the administration of test articles or vehicle. […] Cobimetinib was administered by daily oral gavage at 2.5 mg/kg. The combination of Compound B and cobimetinib at their respective single-agent dose and regimen was also tested. Body weight and tumor volume (using calipers) was measured twice weekly until study endpoints.
as §5, with “At” for “At the”, “4A),” for “2A),”

[19] = tested on: NCI-H358 cells; experiment: 72-hour proliferation assay using CellTiter-Glo, NCI-H358; format: cell-based, human; details: read-out: EC50, 72-hour proliferation assay
Description: The plate was placed in the Incucyte S3 live cell analysis system (37° C., 5% CO2) and confluence was measured by recording images at 6-hour intervals for a maximum of 40 days, or until wells reached maximal confluence. Media and drug were replaced at 3-4 day intervals. Data are plotted as % confluence over the time course of the experiment for each single agent and respective combination (FIG. 5).

C=CC(=O)N1CCN(c2nc(=O)n(-c3c(C)ccnc3C(C)C)c3nc(-c4c(O)cccc4F)c(F)cc23)[C@@H](C)C1 [AMG510, sotorasib]
sensitivity of cell line [1]: insensitive
sensitivity of cell line [2]: insensitive
sensitivity of SW1573 [3]: insensitive

COC1(C(=O)N2Cc3nc(Cl)nc(C[C@H](C)c4cc(N)cc(C(F)(F)F)c4)c3C2)CCOCC1 [Compound SOS1-(A)]
inhibition of tumor growth in vivo [4]: near complete inhibition of tumor growth
inhibition of tumor growth in vivo ([5]; PAN02, immunocompetent mice, Compound SOS1-(A) 100 mg/kg daily oral): substantially higher levels of tumor growth inhibition
inhibition of tumor growth in vivo [6]: near complete inhibition of tumor growth

Cc1nc(N2CCC3(CC2)CO[C@@H](C)[C@H]3N)c(CO)nc1-c1cccc(Cl)c1Cl [RMC-4550]
inhibition of pERK [7]: low or moderate inhibition
inhibition of cell growth [8]: low or moderate inhibition
tumor growth inhibition (TGI) [9]: 7%
TGI [10]: 39%
tumor growth inhibition [11]: less than 50%
IC50 [12]: > 30000 nM
inhibition of cell growth [13]: low or moderate inhibition
tumor growth inhibition ([5]; PAN02, C57/B6 mice, RMC-4550 40 mg/kg every 2 days oral): less than 50%
inhibition of pERK [14]: low or moderate inhibition

CCN1CCN(Cc2ccc(Nc3ncc(F)c(-c4cc(F)c5nc(C)n(C(C)C)c5c4)n3)nc2)CC1 [abemaciclib]
tumor growth inhibition (TGI) [15]: 52%

O=C(c1ccc(F)c(F)c1Nc1ccc(I)cc1F)N1CC(O)([C@@H]2CCCCN2)C1 [cobimetinib]
tumor growth inhibition (TGI) ([16]; Compound SOS1-(C) 100 mg/kg, cobimetinib […]): 38%
tumor growth inhibition (TGI) ([16]; cobimetinib 5 mg/kg): 49%
tumor growth inhibition (TGI) [9]: 41%
tumor growth inhibition (TGI) [17]: 62%
tumor growth response ([18]; A 100 mg/kg po daily 28 days, B 50 mg/kg iv twice weekly, cobimetinib […] po daily, C 60 mg/kg iv once weekly): tumor growth inhibition
mice with tumor regression (of 10) ([18]; regression = greater than 10% reduction of tumor volume, SHP2 inhibitor 30 mg/kg po daily): no tumor regressions

CC(=O)Nc1cccc(-n2c(=O)n(C3CC3)c(=O)c3c(Nc4ccc(I)cc4F)n(C)c(=O)c(C)c32)c1 [trametinib]
EC50 [19]: 10 nM
